Test results reported in patent US9126978B2, “1,4-benzodiazepine-2,5-diones and related compounds with therapeutic properties” (The Regents of the University of Michigan, priority 2009, dated 2015).

Legend:
[1] = molecular target: ROCK-I (h, amino acids 17-535) (Homo sapiens (Human), UniProt Q13464); test: ROCK-I (h) inhibition assay; assay type: biochemical; details: radiometric [γ-32P-ATP] filter assay, 40 minutes at room temperature; read-out: ROCK1 IC50
Method: ROCK-I (h) Inhibition Assay:
In a final reaction volume of 25 μL, ROCK-I (h, amino acids 17-535) (5-10 mU) was incubated with 8 mM MOPS pH 7.0, 0.2 mM EDTA, 30 μM […], 10 mM magnesium acetate and [γ-^32P-ATP] (specific activity approx. 500 cpm/pmol, concentration as required). The reaction was initiated by the addition of the MgATP mix. After incubation for 40 minutes at room temperature, the reaction was stopped by the addition of 5 μL of a 3% phosphoric acid solution. 10 μL of the reaction was then spotted onto a P30 filtermat and washed three times for 5 minutes in 75 mM phosphoric acid and once in methanol prior to drying and scintillation counting.

[2] = molecular target: ROCK-II (h, amino acids 11-552) (Homo sapiens (Human), UniProt O75116); test: ROCK-II (h) inhibition assay; assay type: biochemical; details: radiometric [γ-32P-ATP] filter assay, 40 minutes at room temperature; read-out: ROCK2 IC50
Method: ROCK-II (h) Inhibition Assay:
In a final reaction volume of 25 μL, ROCK-II (h, amino acids 11-552) (5-10 mU) was incubated with 50 mM Tris pH 7.5, 0.1 mM EGTA, 30 μM […], 10 mM magnesium acetate and [γ-^32P-ATP] (specific activity approx. 500 cpm/pmol, concentration as required). The reaction was initiated by the addition of the MgATP mix. After incubation for 40 minutes at room temperature, the reaction was stopped by the addition of 5 μL of a 3% phosphoric acid solution. 10 μL of the reaction was then spotted onto a P30 filter-mat and washed three times for 5 minutes in 75 mM phosphoric acid and once in methanol prior to drying and scintillation counting.

Sequence of ROCK-I (h, amino acids 17-535) (Q13464 17-535): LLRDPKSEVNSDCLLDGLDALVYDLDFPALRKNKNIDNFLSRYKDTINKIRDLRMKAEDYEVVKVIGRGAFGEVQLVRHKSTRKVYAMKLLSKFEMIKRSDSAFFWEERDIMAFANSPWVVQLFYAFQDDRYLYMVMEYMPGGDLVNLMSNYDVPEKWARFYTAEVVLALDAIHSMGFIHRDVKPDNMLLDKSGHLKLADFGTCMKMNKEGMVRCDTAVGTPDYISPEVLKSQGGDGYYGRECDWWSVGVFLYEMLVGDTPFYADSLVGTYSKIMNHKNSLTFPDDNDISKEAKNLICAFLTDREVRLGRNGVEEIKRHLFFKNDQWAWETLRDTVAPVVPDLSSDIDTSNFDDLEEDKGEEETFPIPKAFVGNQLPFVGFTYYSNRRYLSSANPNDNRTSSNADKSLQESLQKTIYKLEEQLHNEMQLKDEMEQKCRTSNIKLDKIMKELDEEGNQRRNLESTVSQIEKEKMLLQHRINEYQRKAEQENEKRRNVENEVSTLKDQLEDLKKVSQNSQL
Sequence of ROCK-II (h, amino acids 11-552) (O75116 11-552): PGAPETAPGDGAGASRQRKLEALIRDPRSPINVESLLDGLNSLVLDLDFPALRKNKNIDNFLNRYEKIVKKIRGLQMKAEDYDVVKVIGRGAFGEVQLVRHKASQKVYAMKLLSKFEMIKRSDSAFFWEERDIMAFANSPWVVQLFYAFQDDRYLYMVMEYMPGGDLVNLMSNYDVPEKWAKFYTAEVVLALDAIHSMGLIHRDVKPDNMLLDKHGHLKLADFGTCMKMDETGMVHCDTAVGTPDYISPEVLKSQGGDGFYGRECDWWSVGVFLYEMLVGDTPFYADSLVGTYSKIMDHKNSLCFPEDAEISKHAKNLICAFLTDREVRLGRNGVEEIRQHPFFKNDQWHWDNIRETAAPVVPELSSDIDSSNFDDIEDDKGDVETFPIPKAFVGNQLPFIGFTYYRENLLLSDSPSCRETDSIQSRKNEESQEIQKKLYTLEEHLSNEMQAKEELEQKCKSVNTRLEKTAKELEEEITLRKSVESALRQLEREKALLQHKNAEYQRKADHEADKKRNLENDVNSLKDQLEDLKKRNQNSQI

IC50 [1]	IC50 [2]	SMILES
> 10000 nM	800 nM	CN1C(=O)[C@@H](Cc2ccc(-c3ccncc3)cc2)NC(=O)c2ccc(Cl)cc21 [Compound 4, (R)-8-chloro-1-methyl-3-(4-(pyridin-4-yl)benzyl)-3,4-dihydro-1H-benzo[e][1,4]diazepine-2,5-dione]
> 30000 nM	1100 nM	CN1C(=O)[C@@H](Cc2ccc(-c3ccncc3)cc2)NC(=O)c2cc(Cl)ccc21 [Compound 1, (R)-7-chloro-1-methyl-3-(4-(pyridin-4-yl)benzyl)-3,4-dihydro-1H-benzo[e][1,4]diazepine-2,5-dione]
> 30000 nM	860 nM	CN1C(=O)[C@@H](Cc2ccc(-c3ccncc3)cc2)NC(=O)c2c(Cl)cccc21 [Compound 3, (R)-6-chloro-1-methyl-3-(4-(pyridin-4-yl)benzyl)-3,4-dihydro-1H-benzo[e][1,4]diazepine-2,5-dione]
> 10000 nM	–	C[C@@]1(Cc2ccc(-c3ccncc3)cc2)NC(=O)c2cc(Cl)ccc2NC1=O [Compound 2, (S)-7-chloro-3-methyl-3-(4-(pyridin-4-yl)benzyl)-3,4-dihydro-1H-benzo[e][1,4]diazepine-2,5-dione]
> 10000 nM	–	CN1C(=O)[C@@H](Cc2ccc(-c3ccncc3)cc2)NC(=O)c2cccc(Cl)c21 [Compound 5, (R)-9-chloro-1-methyl-3-(4-(pyridin-4-yl)benzyl)-3,4-dihydro-1H-benzo[e][1,4]diazepine-2,5-dione]
